For data set [1] the following is noted: DTA.
Data set [2] can be described thus: molar enthalpy of vaporization or sublimation. To be noted: 298.15 K, Drop Microcalorimetry.
Data set [3] is described as follows: Molar enthalpy of transition or fusion. To be noted: DSC.

The source of these data is the NIST ThermoML archive (doi:10.1021/je8004408).

Numbers after ± are expanded uncertainties.

With `O=C1CCCc2c(O)cccc21` [5-hydroxy-1-tetralone], the Normal melting temperature in data set [1] (Crystal) came to 206.91 ± 0.39 °C. Also, the molar enthalpy in data set [2] (Crystal) came to 28.3 ± 0.717 kcal/mol. Besides, in data set [3] (Crystal), the “Molar enthalpy of transition or fusion” value was found to be 8.05 ± 0.198 kcal/mol.
In the case of `O=C1CCCc2cc(O)ccc21` [6-hydroxy-1-tetralone], the Normal melting temperature in data set [1] (Crystal 1) amounted to 152.76 ± 0.45 °C. Besides, the Triple point temperature in data set [1] (Crystal 2) is given as 387.46 ± 0.65 K. Also, in data set [2] (Crystal 2), the molar enthalpy is 28.1 ± 0.669 kcal/mol. In addition, the “Molar enthalpy of transition or fusion” value came to 4.54 ± 0.17 kcal/mol in data set [3] (Crystal 1) and 3.11 ± 0.598 kcal/mol in data set [3] (Crystal 2).
